Results taken from patent US20130310347A1, “MULTI-MODALITY MOLECULAR IMAGING HIGH-THROUGHPUT ASSAY FOR IDENTIFYING HEAT SHOCK PROTEIN 90 (HSP90) INHIBITORS” (The Board of Trustees of the Leland Stanford Junior …, priority 2012, published 2013).

Assays:
1975 cells = assay: Alamar Blue cell proliferation; type: cell-based; conditions: 1975, 24 h
Description: FIG. 6A is a series of graphs illustrating the effect of CP9 on cell proliferation determined by an Alamar Blue assay. The indicated cancer cell lines were treated with different concentrations of CP9 for 24 h prior to incubation with Alamar blue for 4 h. The Hsp90 inhibitors PU-H71 and 17AAG were used as positive controls. Emissions at 570 nm in CP9-treated cells were normalized to that of carrier control-treated cells. Results are expressed as normalized cell proliferation±S.E.M.
CP9 had no effect on proliferation of normal MEFs. Since CP9 led to decrease in phosphorylated Akt (FIGS. 5A and 10A-10C), it was expected to inhibit glucose metabolism through relief of inhibition of glycogen synthase kinase […] (Nair & Olanow (2008) J. Biol. Chem. M707238200; Dandekar et al., (2007) J. Nucl. Med. 48: 602-607).

Hsp90β/p23 interactions = molecular target: T1, Hsp90β/p23 interactions (Homo sapiens, UniProt P08238); assay: HTS dose response, 293T cells stably expressing Hsp90β/p23 split RL reporters; type: cell-based; conditions: inhibition of bioluminescence signals by 50% vs carrier control; 8 point dose response 0.156-20 μM; 24 h
T1 construct: expressed in transfected cells; also with FL-eGFP reporter (293Tβ-FG) and as xenografts in nude mice
Description: Novel Hsp90 inhibitors using a commercial 30,176 small molecule chemical compound library with unknown targets and molecular mechanisms (FIG. 9B) were also identified. 293T cells stably expressing Hsp90α/p23 or Hsp90β/p23 split RL reporters were treated with each compound at 8.3 μM.
Baseline complemented RL activities were determined 90 mins after addition of 20 μl of ENDUREN® (10 μM final concentration) (Promega, Madison, Wis.) using the Analyst GT (Molecular Device, Sunnyvale, Calif.), with an acquisition time of 0.2 sec per well. Cells were incubated with compounds for 24 h prior to re-determination of complemented RL activities, and normalized to the mean RL activities of untreated cells in columns 1-2. Another small molecule chemical library with 30,176 compounds (SPECS, Wakefield, R.I.) was also used in screening modulators of Hsp90(α/β)/p23 inhibitors (at 8.3 μM, one drug per well for initial screening). For dose response/confirmation assay the compounds were tested in duplicate in an 8 point (0.156-20 μM) dose response assay for RL activities for both Hps90(α/β)/p23 interactions. The effect of each compound on cell proliferation at 20 μM was determined using Cell Titer-Blue assay in duplicate wells. […]

T1 sequence (P08238 whole entry): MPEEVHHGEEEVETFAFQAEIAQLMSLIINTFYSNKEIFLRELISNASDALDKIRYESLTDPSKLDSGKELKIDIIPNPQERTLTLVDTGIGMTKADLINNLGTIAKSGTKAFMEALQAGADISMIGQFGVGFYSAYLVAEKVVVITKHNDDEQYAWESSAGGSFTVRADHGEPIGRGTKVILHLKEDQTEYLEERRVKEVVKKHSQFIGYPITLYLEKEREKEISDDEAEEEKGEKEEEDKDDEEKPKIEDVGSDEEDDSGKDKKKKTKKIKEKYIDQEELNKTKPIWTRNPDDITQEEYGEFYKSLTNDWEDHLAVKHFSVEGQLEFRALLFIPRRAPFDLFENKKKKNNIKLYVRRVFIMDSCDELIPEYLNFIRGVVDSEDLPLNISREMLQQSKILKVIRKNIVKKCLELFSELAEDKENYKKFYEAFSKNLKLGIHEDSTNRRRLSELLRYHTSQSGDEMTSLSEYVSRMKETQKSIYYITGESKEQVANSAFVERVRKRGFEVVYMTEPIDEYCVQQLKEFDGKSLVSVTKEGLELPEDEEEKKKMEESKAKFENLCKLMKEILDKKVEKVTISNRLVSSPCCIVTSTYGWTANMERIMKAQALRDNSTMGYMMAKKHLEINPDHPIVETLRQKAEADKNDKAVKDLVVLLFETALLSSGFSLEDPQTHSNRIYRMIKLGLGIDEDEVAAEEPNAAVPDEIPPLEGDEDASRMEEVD

IC50 (Hsp90β/p23 interactions): 15.3 µM
SMILES: Cc1cc(NC(=O)CSc2nc(-c3cccs3)cc(C(F)(F)F)n2)no1 [CP9, N-(5-methylisoxazol-3-yl)-2-(4-(thiophen-2-yl)-6-(trifluoromethyl)pyrimidin-2-ylthio)acetamide]
inhibition of cell proliferation vs PU-H71 and 17-AAG (1975 cells): more effective than PU-H71 and 17-AAG
